Source: PubChem BioAssay (NCI)
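Interpolation was linear, between the two tested concentrations surrounding the appropriate level; five concentrations were tested over 48 hours in 96-well plates. GI50 marks 50% less growth. TGI: concentration producing complete growth inhibition.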

What was measured:
Assay in all cases: NCI anticancer screen, dose series, 48 h
[1] = system: UACC-257 melanoma
[2] = system: NCI-H23 lung
[3] = system: HCT-116 colon
[4] = system: MALME-3M melanoma
[5] = system: M14 melanoma
[6] = system: UACC-62 melanoma
[7] = system: HL-60(TB) leukemia
[8] = system: A549 NSCLC

Row | Compound | TGI [1] [µM] | TGI [2] [µM] | TGI [3] [µM] | TGI [4] [µM] | TGI [5] [µM] | TGI [6] [µM] | TGI [7] [µM] | TGI [8] [µM] | GI50 [1] [µM] | GI50 [6] [µM] | GI50 [7] [µM] | GI50 [8] [µM] | GI50 [2] [µM] | GI50 [4] [µM]
1 | N#CCc1nc2cc(C(F)(F)F)ccc2s1 | > 100 | 94.8 | 95.2 | > 100 |  |  |  |  |  |  |  |  |  | 
2 | Cc1cc2oc3c(ccc(=O)n3C)c(=O)c2c(C)c1Cl |  | > 100 | > 100 | > 100 | 81.8 | > 100 | > 100 | > 100 |  |  |  |  |  | 
3 | CC(C)C1=C(Cc2ccccc2)C(=O)O/C1=C\c1ccc(O)c(Cl)c1 | 32.8 | 25.8 | 28.8 | 30.6 | 31.3 | 28 | 37.7 | 28.4 |  |  |  |  |  | 
4 | S=C(N/N=C(\C(=N/NC(=S)N1CCCCC1)c1ccccn1)c1ccccn1)N1CCCCC1 | > 100 | > 100 | > 100 | > 100 | 50.3 | > 100 | 19.8 | > 100 |  |  |  |  |  | 
5 | CC1(C)CN=CC(C)(OCc2ccccc2)C(=O)NC(C)(C)CN=CC(C)(OCc2ccccc2)C(=O)N1 (stereo not given) | > 10 | > 10 | > 10 |  | > 10 | > 10 | > 10 | > 10 |  |  |  |  |  | 
6 | O=C1CCCCN1C(=O)c1ccc([N+](=O)[O-])cc1 | > 100 | > 100 | > 100 | > 100 | > 100 | > 100 | > 100 | > 100 |  |  |  |  |  | 
7 | O=c1[nH]c(=O)n(COCc2ccccc2)c2ccccc12 | > 100 |  | > 100 |  | > 100 | > 100 | > 100 | > 100 |  |  |  |  |  | 
8 | COC12C=CC(CC1)C(C)(C)C2OS(C)(=O)=O (stereo not given) | > 100 | > 100 | > 100 | > 100 | > 100 | > 100 | > 100 | > 100 |  |  |  |  |  | 
9 | Nc1ccccc1OCCCOc1ccccc1N | > 100 | > 100 | > 100 | > 100 | > 100 | > 100 | > 100 | > 100 |  |  |  |  |  | 
10 | CCN(CC)C1Oc2cc3c(cc2C(c2cccc(OC)c2O)C1C)OCO3 (stereo not given) | > 50.4 | 43.5 | 21.1 | 21.7 | 12.6 | 28.5 | 7.18 | 24.6 |  |  |  |  |  | 
11 | CC(=O)N1C(Nc2cccc3nc(C)ccc23)CCN1c1ccccc1 (stereo not given) | > 10 | > 10 | > 10 | > 10 | > 10 |  | > 10 | > 10 |  |  |  |  |  | 
12 | O=C1C=C(O)c2c(O)ccc(O)c2C1=O | > 100 | > 100 | > 100 | > 100 | > 100 | > 100 | > 100 | > 100 |  |  |  |  |  | 
13 | O=c1c2cc(I)ccc2nc(SCc2nnco2)n1Cc1ccccc1 | > 100 | > 100 | > 100 |  | > 100 | > 100 | 35.4 | > 100 |  |  |  |  |  | 
14 | CC(=O)O[C@H]1C[C@](C)(O)[C@@]23CC([C@@H](OC(=O)C(C)(C)O)[C@@H](OC(C)=O)C2(COC(=O)c2ccccc2)[C@H]1OC(C)=O)C(C)(C)O3 (stereo not given in full) | > 100 | > 100 | > 100 | > 100 | > 100 | > 100 |  | > 100 |  |  |  |  |  | 
15 | COc1ccc(C2=NNC(c3cc4cc(Br)ccc4nc3Cl)C2)cc1 (stereo not given) | > 25 | > 25 | > 25 |  | > 25 | > 25 | 12.1 |  |  |  |  |  |  | 
16 | CC1CCOc2ccc(cc2)C=Nc2ccc(cc2)-c2ccc(cc2)N=Cc2ccc(cc2)OCC1 (stereo not given) | > 100 | > 100 | > 100 |  | > 100 |  | > 100 | > 100 |  |  |  |  |  | 
17 | Cc1cn([C@@H]2C[C@H](CO)[C@@H]2O)c(=O)[nH]c1=O | > 100 | > 100 | > 100 | > 100 |  |  | > 100 | > 100 |  |  |  |  |  | 
18 | CC1=CC(=O)/C(=C/n2c(=S)[nH]c3cc(C)ccc32)C(=O)O1 | > 100 | > 100 | > 100 |  | > 100 | > 100 | > 100 | > 100 |  |  |  |  |  | 
19 | CN(C)CC1CCCc2ccccc2C1=O (stereo not given) | 18.9 | 15.2 | 3.26 | 3.62 | 3.42 | 6.18 |  | 39.5 |  |  |  |  |  | 
20 | COc1cc(/C(=C2/O[C@@H]([C@H]3COC(C)(C)O3)[C@H]3OC(C)(C)O[C@@H]23)c2ccc3c(c2)OCO3)cc(OC)c1OC | > 25 | > 25 |  | > 25 |  | > 25 | > 25 | > 25 | > 25 | > 25 | > 25 | > 25 | > 25 | > 25
21 | O=C1CC(C(COCc2ccccc2)OCc2ccccc2)CC(=O)N1 (stereo not given) | > 100 | > 100 | > 100 | > 100 | > 100 |  | > 100 | > 100 |  |  |  |  |  | 
22 | C[N+]1([O-])[C@H]2CC(OC(=O)[C@H](CO)c3ccccc3)C[C@H]1[C@H]1O[C@H]12 (stereo not given in full) | > 100 | > 100 | > 100 | > 100 | > 100 | > 100 |  | > 100 |  |  |  |  |  | 
23 | CO[C@]12CC(=O)C3(C(C[C@H]4CC5CC[C@H]6C[C@@H](OC(C)=O)CC[C@]6(OC(C)=O)C5C[C@@]43C)C1)C1C[C@H]3[C@@H]4CC[C@H]5C[C@@H](OC(C)=O)CC[C@]5(OC(C)=O)[C@H]4CC[C@]3(C)C12 (stereo not given in full) | > 100 | > 100 | > 100 | > 100 | > 100 | > 100 |  | > 100 |  |  |  |  |  | 
24 | N#Cc1ccc2[nH]c3c(c2c1)CC(=O)Nc1ccccc1-3 | > 100 | > 100 | > 100 |  | > 100 | > 100 | > 100 | > 100 |  |  |  |  |  | 
25 | O=C(c1ccccc1)c1c(C(F)(F)F)n([O-])c2cc(F)c(F)cc2[n+]1=O | 3.76 | 0.789 |  | 0.42 | 1.49 | 5.08 | 1.55 | 8.34 |  |  |  |  |  | 
26 | COc1cccc([C@@H]2CC(=O)c3cc4c(cc3N2)OCO4)c1 | > 100 |  | > 100 |  | > 100 | > 100 |  | > 100 |  |  |  |  |  | 
